Drawing on patent US20070105865A1, “Substituted bicyclic quinazolin-4-ylamine derivatives” (Neurogen Corporation, priority 2003, published 2007), this text covers IC50 for 9 compounds.

Where a name gives a salt, the structure may show the parent alone.

In the experiment the target is T1, human capsaicin receptor (Homo sapiens, UniProt Q8NER1).
T1 construct: transfected with the pBK-CMV expression construct encoding the full length human capsaicin receptor using standard methods; expressed in transfected cells
In words: Calcium mobilization assay (Example 6). The experiment is classed as cell-based. The conditions noted are these: determined as described in Example 6; cells expressing human capsaicin receptor, capsaicin response. As for the experimental part:
Human embryonic kidney (HEK293) cells were transfected with the pBK-CMV expression construct encoding the full length human capsaicin receptor using standard methods. The transfected cells were selected for two weeks in media containing G418 (400 μg/ml) to obtain a pool of stably transfected cells. Independent clones were isolated from this pool by limiting dilution to obtain clonal stable cell lines for use in subsequent experiments.
This Example illustrates a representative calcium mobilization assay for use in monitoring the response of cells expressing capsaicin receptor to capsaicin and other vanilloid ligands of the capsaicin receptor, as well as for evaluating test compounds for agonist and antagonist activity.
Cells transfected with expression plasmids (as described in Example 4) and thereby expressing human capsaicin receptor are seeded and grown to 70-90% confluency in FALCON black-walled, clear-bottomed 96-well plates (#3904, BECTON-DICKINSON, Franklin Lakes, N.J.). The culture medium is emptied from the 96 well plates and FLUO-3 AM calcium sensitive dye (Molecular Probes, Eugene, Oreg.) is added to each well (dye solution: 1 mg FLUO-3 AM, 440 μL DMSO and 440 μl 20% pluronic acid in DMSO, diluted 1:250 in Krebs-Ringer HEPES (KRH) buffer (25 mM HEPES, 5 mM KCl, 0.96 mM NaH2PO4, 1 mM MgSO4, 2 mM CaCl2, 5 mM glucose, 1 mM probenecid, pH 7.4), 50 μl diluted solution per well). Plates are covered with aluminum foil and incubated at 37° C. for 1-2 hours in an environment containing 5% CO2. After the incubation, the dye is emptied from the plates, and the cells are washed once with KRH buffer, and resuspended in KRH buffer.
Agonist (e.g., olvanil, capsaicin or RTX)-induced calcium mobilization is monitored using either FLUOROSKAN ASCENT (Labsystems, Franklin, Mass.) or FLIPR (fluorometric imaging plate reader system, Molecular Devices, Sunnyvale, Calif.) instruments. Varying concentrations of the antagonists ruthenium red or capsazepine (RBI; Natick, Mass.) are added to cells concurrently with agonist (e.g., 25-50 nM capsaicin). For agonist-induced calcium responses, data obtained between 30 and 60 seconds after agonist application are used to generate the IC50 values. KALEIDAGRAPH software (Synergy Software, Reading, Pa.) is used to fit the data to the equation: y=a*(1/(1+(b/x)^c)) to determine the IC50 for the response. In this equation, y is the maximum fluorescence signal, x is the concentration of the agonist or antagonist, a is the Emax, b corresponds to the IC50 value and c is the Hill coefficient.
To measure the ability of a test compound to antagonize (inhibit) the response of cells expressing capsaicin receptors to capsaicin or other vanilloid agonist, the IC50 of capsaicin is first determined. An additional 20 μl of KRH buffer and 1 μl DMSO is added to each well of cells, prepared as described above. 100 μl capsaicin in KRH buffer is automatically transferred by the FLIPR instrument to each well. An 8-point concentration response curve, with final capsaicin concentrations of 1 nM to 3 μM, is used to determine capsaicin IC50.
Test compounds are dissolved in DMSO, diluted in 20 μl KRH buffer so that the final concentration of test compounds in the assay well is between 1 μM and 5 μM, and added to cells prepared as described above. The 96 well plates containing prepared cells and test compounds are incubated in the dark, at room temperature for 0.5 to 6 hours. It is important that the incubation not continue beyond 6 hours. Just prior to determining the fluorescence response, 100 μl capsaicin in KRH buffer at twice the IC50 concentration determined from the concentration response curve is automatically added by the FLIPR instrument to each well of the 96 well plate for a final sample volume of 200 μl and a final capsaicin concentration equal to the IC50. The final concentration of test compounds in the assay wells is between 1 μM and 5 μM. […]

As usually defined, the IC50 is the concentration at which inhibition is half-maximal.

T1 sequence (Q8NER1 whole entry): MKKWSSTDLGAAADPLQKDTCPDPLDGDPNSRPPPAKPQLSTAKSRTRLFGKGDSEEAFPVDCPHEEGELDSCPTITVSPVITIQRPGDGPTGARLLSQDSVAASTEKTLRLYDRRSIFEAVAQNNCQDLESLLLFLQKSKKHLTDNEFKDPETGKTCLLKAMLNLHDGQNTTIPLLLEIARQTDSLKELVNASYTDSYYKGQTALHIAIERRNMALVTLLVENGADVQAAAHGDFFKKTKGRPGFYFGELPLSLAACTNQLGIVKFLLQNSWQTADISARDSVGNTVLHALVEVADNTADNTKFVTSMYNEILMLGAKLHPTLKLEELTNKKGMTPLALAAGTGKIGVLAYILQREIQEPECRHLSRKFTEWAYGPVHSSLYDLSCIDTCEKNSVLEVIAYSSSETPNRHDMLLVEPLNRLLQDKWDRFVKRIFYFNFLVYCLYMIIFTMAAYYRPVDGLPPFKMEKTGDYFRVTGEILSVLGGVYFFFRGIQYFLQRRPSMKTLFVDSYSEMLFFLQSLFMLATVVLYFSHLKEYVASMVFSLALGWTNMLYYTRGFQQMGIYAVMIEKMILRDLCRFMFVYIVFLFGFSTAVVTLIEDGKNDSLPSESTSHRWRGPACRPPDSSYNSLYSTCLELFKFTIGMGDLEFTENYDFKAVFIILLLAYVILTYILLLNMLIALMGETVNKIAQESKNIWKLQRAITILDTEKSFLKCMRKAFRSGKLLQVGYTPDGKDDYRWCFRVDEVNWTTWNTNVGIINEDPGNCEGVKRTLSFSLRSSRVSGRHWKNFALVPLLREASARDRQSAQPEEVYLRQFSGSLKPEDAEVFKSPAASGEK

With `CC(C)COCc1nc(Nc2ccc3c(c2)N(C)CC3(C)C)c2ccc(-c3ncccc3Cl)nc2n1` [Compound 8, [7-(3-Chloro-pyridin-2-yl)-2-isobutoxymethyl-pyrido[2,3-d]pyrimidin-4-yl]-(1,3,3-trimethyl-2,3-dihydro-1H-indol-6-yl)-amine], the IC50 was less than 1000 nM. Regarding `CN1Cc2cc(Nc3ncnc4cc(-c5ncccc5Cl)cnc34)ccc2C(C)(C)C1` [Compound 9, [7-(3-Chloro-pyridin-2-yl)-pyrido[3,2-d]pyrimidin-4-yl]-(2,4,4-trimethyl-1,2,3,4-tetrahydro-isoquinolin-7-yl)-amine hydrochloride], the IC50 is less than 1000 nM. Consider `CC(C)COCc1nc(Nc2ccc3c(c2)NCCC3(C)C)c2ccc(-c3ncccc3C(F)(F)F)nc2n1` [Compound 4, (4,4-Dimethyl-1,2,3,4-tetrahydro-quinolin-7-yl)-[2-isobutoxymethyl-7-(3-trifluoromethyl-pyridin-2-yl)pyrido[2,3-d]pyrimidin-4-yl]-amine hydrochloride], for which the IC50 is less than 1000 nM. Then `COCc1nc(Nc2ccc3c(c2)N(C)CCC3)c2ccc(-c3ncccc3Cl)nc2n1` [Compound 1, [7-(3-Chloro-pyridin-2-yl)-2-methoxymethyl-pyrido[2,3-d]pyrimidin-4-yl]-(1-methyl-1,2,3,4-tetrahydro-quinolin-7-yl)-amine], with less than 1000 nM; and `COCc1cc(Nc2ccc3c(c2)NCCC3(C)C)c2ccc(-c3ncccc3C(F)(F)F)nc2n1` [Compound 10], with less than 1000 nM; and `CN1Cc2cc(Nc3ncnc4cc(-c5ncccc5C(F)(F)F)ccc34)ccc2C(C)(C)C1` [Compound 3, [7-(3-Trifluoromethyl-pyridin-2-yl)-quinazolin-4-yl]-(2,4,4-trimethyl-1,2,3,4-tetrahydro-isoquinolin-7-yl)-amine hydrochloride], with less than 1000 nM. Take `CCOCc1nc(Nc2ccc3c(c2)N(C)CCO3)c2ccc(-c3ncccc3Cl)nc2n1` [Compound 6]: the IC50 was less than 1000 nM.

For the compound `CCOCc1nc(Nc2ccc3c(c2)N(C(C)=O)CC3(C)C)c2ccc(-c3ncccc3C)nc2n1` [Compound 7, 1-{6-[2-Ethoxymethyl-7-(3-methyl-pyridin-2-yl)-pyrido[2,3-d]pyrimidin-4-ylamino]-3,3-dimethyl-2,3-dihydro-indol-1-yl}-ethanone], the IC50 was less than 1000 nM. In the case of `COCc1nc(Nc2ccc3c(c2)NCCC3)c2ccc(-c3ncccc3C(F)(F)F)nc2n1` [Compound 5, [2-Methoxymethyl-7-(3-trifluorometyl-pyridin-2-yl)-pyrido[2,3-d]pyrimidin-4-yl]-(1,2,3,4-tetrahydro-quinolin-7-yl)-amine], the half-maximal inhibitory concentration (IC50) is less than 1000 nM.
